Reference: ChEMBL document CHEMBL4665653, “VU6005806/AZN-00016130, an advanced M positive allosteric modulator (PAM) profiled as a potential preclinical development candidate” (Bioorg Med Chem Lett, 2019)

Target: 5-hydroxytryptamine receptor 1A (Homo sapiens) (UniProt P08908)
Assay: Displacement of [3H]-8-OH-DPAT from full length recombinant human 5HT1A receptor expressed in CHO-K1 cells assessed as residual binding level for radioligand at 10 uM incubated for 60 mins by radiometric scintillation analysis relative to control
Assay type: cell-based

Sequence of 5-hydroxytryptamine receptor 1A (Homo sapiens) (P08908 whole entry): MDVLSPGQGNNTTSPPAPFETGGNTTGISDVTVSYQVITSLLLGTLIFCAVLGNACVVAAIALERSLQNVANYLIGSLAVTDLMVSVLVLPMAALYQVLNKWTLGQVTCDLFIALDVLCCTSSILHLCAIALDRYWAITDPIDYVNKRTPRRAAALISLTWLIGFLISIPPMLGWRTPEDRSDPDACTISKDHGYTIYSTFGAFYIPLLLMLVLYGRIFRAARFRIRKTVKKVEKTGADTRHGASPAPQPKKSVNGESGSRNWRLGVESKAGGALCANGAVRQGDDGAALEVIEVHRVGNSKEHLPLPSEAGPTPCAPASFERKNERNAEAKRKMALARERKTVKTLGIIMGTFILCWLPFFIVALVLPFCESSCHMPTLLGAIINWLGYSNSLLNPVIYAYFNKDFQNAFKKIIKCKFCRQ

Question: For `COc1nnc2sc(C(=O)NC3CN(c4ncc(C(F)(F)F)cn4)C3)c(N)c2c1C`, which Activity is on record?
Answer: > 50%
